Assay results taken from ChEMBL document CHEMBL2010727, “A novel series of benzimidazole NR2B-selective NMDA receptor antagonists” (Bioorg Med Chem Lett, 2012).
Calls of active or inactive are those of the source. The calls are words filed in the database; no cut-off is given here.

Columns and labels:
[1] = biological target: Glutamate receptor ionotropic, NMDA 2B (Homo sapiens, UniProt Q05586+Q13224); assay: Displacement of [3H]-Ro256981 from human NR2B receptor
[2] = Antagonist activity at human NR1-NR2A receptor by FLIPR-based Ca2+ flux assay
[3] = Inhibition of alpha1 adrenergic receptor at 10 uM
[4] = biological target: T1, Glutamate NMDA receptor; GRIN1/GRIN2B (Homo sapiens) (UniProt Q05586+Q13224); assay: Reversible inhibition of human NR1-NR2B receptor expressed in HEK293T cells assessed as inhibition of glutamate-induced response by whole cell voltage clamp electrophysiology assay; format: cell-based; settings: HEK-293T
[5] = biological target: T1, Glutamate NMDA receptor; GRIN1/GRIN2B (Homo sapiens); assay: Reversible inhibition of human NR1-NR2B receptor expressed in HEK293T cells assessed as inhibition of glycine-induced response by whole cell voltage clamp electrophysiology assay; format: cell-based; settings: HEK-293T
Homo sapiens = species: Homo sapiens; assay: Selectivity ratio of human NR2B receptor over human ERG
Cytochrome P450 1A2 = biological target: T2, Cytochrome P450 1A2 (Homo sapiens, UniProt P05177); assay: Inhibition of CYP1A2; format: ADME
T2 sequence (P05177 whole entry): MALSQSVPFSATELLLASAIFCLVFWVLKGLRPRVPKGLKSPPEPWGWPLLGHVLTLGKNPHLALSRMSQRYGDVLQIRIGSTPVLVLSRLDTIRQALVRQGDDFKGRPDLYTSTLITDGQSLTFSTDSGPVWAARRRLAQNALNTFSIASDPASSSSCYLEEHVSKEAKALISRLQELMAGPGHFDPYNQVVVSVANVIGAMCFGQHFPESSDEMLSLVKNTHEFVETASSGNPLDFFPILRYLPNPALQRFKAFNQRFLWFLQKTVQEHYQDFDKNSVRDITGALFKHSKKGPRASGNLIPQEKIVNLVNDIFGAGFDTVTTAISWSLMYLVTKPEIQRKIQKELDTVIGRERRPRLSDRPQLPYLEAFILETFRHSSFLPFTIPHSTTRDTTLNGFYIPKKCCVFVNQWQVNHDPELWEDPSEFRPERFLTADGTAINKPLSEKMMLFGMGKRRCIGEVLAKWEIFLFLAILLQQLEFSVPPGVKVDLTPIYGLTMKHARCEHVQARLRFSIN

Cytochrome P450 2C9 = Cytochrome P450 2C9 (Homo sapiens, UniProt P11712); assay: Inhibition of CYP2C9; format: ADME
Cytochrome P450 2C19 = Cytochrome P450 2C19 (Homo sapiens, UniProt P33261); assay: Inhibition of CYP2C19; format: ADME
Cytochrome P450 2D6 = Cytochrome P450 2D6 (Homo sapiens, UniProt P10635); assay: Inhibition of CYP2D6; format: ADME
Cytochrome P450 3A4 = Cytochrome P450 3A4 (Homo sapiens, UniProt P08684); assay: Inhibition of CYP3A4; format: ADME
Liver microsomes = assay: Intrinsic clearance in human liver microsomes; format: ADME, Microsome
Blood = assay: Drug uptake in rat blood at 3 mg/kg, sc; format: ADME, organism-based; parameters: dose 3 mg/kg, route subcutaneous; settings: in vivo, read-out: Drug uptake
[6] = Tmax in rat at 3 mg/kg, sc; format: ADME, organism-based; parameters: dose 3 mg/kg, route subcutaneous; settings: in vivo
[7] = Terminal half life in rat at 3 mg/kg, sc; format: ADME, organism-based; parameters: dose 3 mg/kg, route subcutaneous; settings: in vivo, read-out: beta t1/2 (converted)
[8] = Ratio of drug level in brain to blood in rat at 3 mg/kg, sc; format: ADME, organism-based; parameters: dose 3 mg/kg, route subcutaneous

Cytochrome P450 2D6, sequence (P10635 whole entry): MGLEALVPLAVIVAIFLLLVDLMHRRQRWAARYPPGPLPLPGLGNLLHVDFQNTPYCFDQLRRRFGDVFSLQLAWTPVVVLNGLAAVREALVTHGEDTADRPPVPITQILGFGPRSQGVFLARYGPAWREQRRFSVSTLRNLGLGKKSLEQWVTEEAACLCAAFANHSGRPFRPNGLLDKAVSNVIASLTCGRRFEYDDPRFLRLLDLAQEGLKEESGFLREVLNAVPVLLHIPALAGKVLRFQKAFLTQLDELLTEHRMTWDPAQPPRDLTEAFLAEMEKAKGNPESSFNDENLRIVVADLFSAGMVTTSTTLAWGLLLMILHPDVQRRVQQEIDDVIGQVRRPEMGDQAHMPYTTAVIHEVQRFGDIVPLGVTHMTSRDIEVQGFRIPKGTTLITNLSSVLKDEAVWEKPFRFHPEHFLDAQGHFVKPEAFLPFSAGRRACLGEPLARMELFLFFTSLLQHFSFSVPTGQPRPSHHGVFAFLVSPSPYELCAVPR
Cytochrome P450 3A4, sequence (P08684 whole entry): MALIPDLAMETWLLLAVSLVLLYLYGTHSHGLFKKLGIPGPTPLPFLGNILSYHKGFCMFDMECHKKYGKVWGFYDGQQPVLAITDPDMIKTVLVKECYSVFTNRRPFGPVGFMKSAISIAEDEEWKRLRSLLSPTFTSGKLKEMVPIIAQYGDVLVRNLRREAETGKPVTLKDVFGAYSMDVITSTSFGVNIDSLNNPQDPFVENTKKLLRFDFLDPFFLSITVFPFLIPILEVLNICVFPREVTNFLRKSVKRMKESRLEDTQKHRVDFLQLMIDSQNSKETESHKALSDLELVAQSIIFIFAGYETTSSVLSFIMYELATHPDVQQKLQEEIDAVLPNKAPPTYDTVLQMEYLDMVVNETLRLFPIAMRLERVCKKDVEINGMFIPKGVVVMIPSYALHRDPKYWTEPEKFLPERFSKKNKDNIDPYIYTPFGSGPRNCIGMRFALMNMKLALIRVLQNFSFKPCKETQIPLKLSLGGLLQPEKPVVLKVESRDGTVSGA
Cytochrome P450 2C9, sequence (P11712 whole entry): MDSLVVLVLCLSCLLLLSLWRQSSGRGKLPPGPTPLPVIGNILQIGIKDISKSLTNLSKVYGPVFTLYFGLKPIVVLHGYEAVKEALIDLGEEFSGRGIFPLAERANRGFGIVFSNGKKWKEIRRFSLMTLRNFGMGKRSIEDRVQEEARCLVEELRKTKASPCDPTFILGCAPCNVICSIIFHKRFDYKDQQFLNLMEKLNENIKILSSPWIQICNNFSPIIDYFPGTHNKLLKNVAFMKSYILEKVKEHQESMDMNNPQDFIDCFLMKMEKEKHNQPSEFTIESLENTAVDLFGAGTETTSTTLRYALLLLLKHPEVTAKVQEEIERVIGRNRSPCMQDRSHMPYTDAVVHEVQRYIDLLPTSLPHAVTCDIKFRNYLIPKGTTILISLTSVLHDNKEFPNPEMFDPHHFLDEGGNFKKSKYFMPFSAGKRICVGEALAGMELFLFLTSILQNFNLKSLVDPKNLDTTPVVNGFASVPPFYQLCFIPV
Cytochrome P450 2C19, sequence (P33261 whole entry): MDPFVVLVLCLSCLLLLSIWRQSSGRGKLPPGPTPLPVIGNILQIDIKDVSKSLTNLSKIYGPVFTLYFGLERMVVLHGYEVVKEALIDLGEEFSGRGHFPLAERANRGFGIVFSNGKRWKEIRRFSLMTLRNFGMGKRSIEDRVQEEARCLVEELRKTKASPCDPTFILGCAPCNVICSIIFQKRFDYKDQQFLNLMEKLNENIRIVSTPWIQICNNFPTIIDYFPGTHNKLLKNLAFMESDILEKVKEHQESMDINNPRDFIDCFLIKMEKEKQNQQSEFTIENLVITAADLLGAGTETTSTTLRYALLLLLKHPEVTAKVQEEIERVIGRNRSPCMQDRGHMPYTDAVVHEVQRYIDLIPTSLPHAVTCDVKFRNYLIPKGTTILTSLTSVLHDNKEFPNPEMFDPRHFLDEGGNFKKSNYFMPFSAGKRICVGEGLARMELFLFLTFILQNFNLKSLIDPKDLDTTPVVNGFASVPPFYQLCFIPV

| Compound | IC50 [1] | IC50 [2] | inhibition [3] | Selectivity ratio (Homo sapiens) | further results |
| --- | --- | --- | --- | --- | --- |
| Oc1ccc2nc(-c3cccc(F)c3F)[nH]c2c1CNCc1ccco1 | 794 nM | > 50.1 µM | – | – | – |
| Oc1ccc2[nH]c(Cc3ccccc3)nc2c1CN1CCCC1 | – | – | < 50% | – | – |
| O=C(c1cccc2nc(-c3ccccc3)[nH]c12)N1CCCCC1 | > 10000 nM | > 50.1 µM | – | – | – |
| CN(C)Cc1c(O)ccc2[nH]c(-c3ccccc3)nc12 | – | – | < 50% | – | – |
| CC(C)NCc1c(F)ccc2[nH]c(-c3ccccc3)nc12 | – | – | < 50% | > 100 | inhibition [4]: Active; inhibition [5]: Active |
| O=C(c1cccc2[nH]c(-c3ccccc3)nc12)N1CCCCC1 | – | – | < 50% | > 100 | inhibition [4]: Active; inhibition [5]: Active |
| Oc1ccc2[nH]c(-c3cccc(F)c3F)nc2c1CNCc1cccs1 | – | – | < 50% | – | – |
| CCC1CCCCN1Cc1c(F)ccc2[nH]c(-c3ccccc3)nc12 (stereo not drawn) | – | – | < 50% | > 100 | inhibition [4]: Active; inhibition [5]: Active |
| CCCNCc1c(O)ccc2[nH]c(-c3ccccc3)nc12 | – | – | < 50% | – | – |
| Oc1ccc2[nH]c(-c3ccccc3)nc2c1CN1CCC(c2ccccc2)CC1 | 79.4 nM | > 50.1 µM | – | > 100 | – |
| Oc1ccc2[nH]c(-c3ccccc3)nc2c1CN1CCCCCC1 | 7.94 nM | > 50.1 µM | < 50% | > 100 | – |
| c1ccc(-c2nc3c(CN4CCCCC4)cccc3[nH]2)cc1 | – | – | < 50% | – | inhibition [4]: Active; inhibition [5]: Active |
| Fc1ccc2nc(-c3ccccc3)[nH]c2c1CN1CCCC1 | – | – | – | – | IC50 (Cytochrome P450 1A2): 16 µM; IC50 (Cytochrome P450 2C9): > 30 µM; IC50 (Cytochrome P450 2C19): > 30 µM; IC50 (Cytochrome P450 2D6): 5 µM; IC50 (Cytochrome P450 3A4): > 30 µM; CLH (Liver microsomes): < 0.5 mL/min/g |
| Oc1ccc2[nH]c(-c3cccc(F)c3F)nc2c1CNCc1ccco1 | – | – | < 50% | > 100 | – |
| CN1CCN(Cc2c(O)ccc3[nH]c(-c4ccccc4)nc23)CC1 | – | – | < 50% | > 100 | – |
| Oc1ccc2[nH]c(-c3cccc(F)c3F)nc2c1CN1CCCC1 | – | – | < 50% | > 100 | – |
| Oc1ccc2nc(-c3cccc(F)c3F)[nH]c2c1CN1CCCC1 | 12.6 nM | > 50.1 µM | – | – | – |
| Cc1ccc(-c2nc3c(CNC4CC4)c(O)ccc3[nH]2)cc1 | 39.8 nM | > 50.1 µM | < 50% | > 100 | – |
| Oc1ccc2[nH]c(-c3ccccc3)nc2c1CNC1CCCC1 | – | – | < 50% | > 100 | – |
| Cc1cccc2[nH]c(-c3ccccc3)nc12 | > 10000 nM | > 50.1 µM | < 50% | > 100 | inhibition [4]: Active; inhibition [5]: Active |
| Oc1ccc2nc(-c3ccccc3)[nH]c2c1CNC1CCCC1 | 31.6 nM | > 50.1 µM | – | – | – |
| c1ccc(-c2nc3cccc(CN4CCCCC4)c3[nH]2)cc1 | – | – | – | – | IC50 (Cytochrome P450 1A2): 7 µM; IC50 (Cytochrome P450 2C9): > 50 µM; IC50 (Cytochrome P450 2C19): > 50 µM; IC50 (Cytochrome P450 2D6): 5 µM; IC50 (Cytochrome P450 3A4): > 50 µM; CLH (Liver microsomes): 3.6 mL/min/g |
| Oc1ccc2[nH]cnc2c1CN1CCCCC1 | – | – | < 50% | – | – |

Now from value to compound, other results behind:

| IC50 [1] | IC50 [2] | inhibition [3] | Selectivity ratio (Homo sapiens) | Compound | further results |
| --- | --- | --- | --- | --- | --- |
| – | – | < 50% | – | Fc1ccc2[nH]c(-c3ccccc3)nc2c1CN1CCCC1 | inhibition [4]: Active; inhibition [5]: Active |
| 1000 nM | > 50.1 µM | – | – | CCC1CCCCN1Cc1c(F)ccc2nc(-c3ccccc3)[nH]c12 (stereo not drawn) | – |
| 398 nM | > 50.1 µM | – | – | CN1CCN(Cc2c(O)ccc3nc(-c4ccccc4)[nH]c23)CC1 | – |
| – | – | < 50% | > 100 | Fc1ccc2[nH]c(-c3ccccc3)nc2c1CN1CCCCC1 | inhibition [4]: Active; inhibition [5]: Active |
| 200 nM | > 50.1 µM | < 50% | > 100 | Fc1ccc2[nH]c(-c3ccccc3)nc2c1CN1CCCCCC1 | inhibition [4]: Active; inhibition [5]: Active |
| – | – | < 50% | > 100 | Fc1ccc2[nH]c(-c3ccccc3)nc2c1CN1CCOCC1 | inhibition [4]: Active; inhibition [5]: Active |
| 79.4 nM | > 50.1 µM | – | – | Fc1ccc2nc(-c3ccccc3)[nH]c2c1CN1CCCCC1 | – |
| 794 nM | > 50.1 µM | – | – | CC(C)NCc1c(F)ccc2nc(-c3ccccc3)[nH]c12 | – |
| 2510 nM | > 50.1 µM | – | – | Fc1ccc2nc(-c3ccccc3)[nH]c2c1CN1CCOCC1 | – |
| – | – | < 50% | – | Oc1ccc2[nH]c(-c3ccccc3)nc2c1CN1CCOCC1 | – |
| – | – | < 50% | > 100 | Oc1ccc2[nH]c(-c3ccccc3)nc2c1CN1CCCC1 | – |
| – | – | < 50% | – | Oc1ccc2[nH]c(-c3ccccc3)nc2c1CN1CCCCC1 | IC50 (Cytochrome P450 1A2): 3 µM; IC50 (Cytochrome P450 2C9): > 30 µM; IC50 (Cytochrome P450 2C19): > 30 µM; IC50 (Cytochrome P450 2D6): 6 µM; IC50 (Cytochrome P450 3A4): > 30 µM; CLH (Liver microsomes): 3.9 mL/min/g; concentration (Blood): 600 nM; Tmax [6]: 48 min; half-life [7]: 66 min; Kp [8]: 2.7 |
| 7.94 nM | > 50.1 µM | – | – | Oc1ccc2nc(-c3ccccc3)[nH]c2c1CN1CCCC1 | – |
